Common to all, as to experiment: IP1 accumulation
Assay type in all cases: cell-based
What all share (conditions): mean ± S.E.M.; for Emax: IP1 maximal response, SEM

Experiment [1] deals with T1, hCTR D373A (Homo sapiens, UniProt P30988, D373A).
T1 construct: c-Myc (N); expressed in transfected cells
T1 sequence (P30988 25-474 D373A): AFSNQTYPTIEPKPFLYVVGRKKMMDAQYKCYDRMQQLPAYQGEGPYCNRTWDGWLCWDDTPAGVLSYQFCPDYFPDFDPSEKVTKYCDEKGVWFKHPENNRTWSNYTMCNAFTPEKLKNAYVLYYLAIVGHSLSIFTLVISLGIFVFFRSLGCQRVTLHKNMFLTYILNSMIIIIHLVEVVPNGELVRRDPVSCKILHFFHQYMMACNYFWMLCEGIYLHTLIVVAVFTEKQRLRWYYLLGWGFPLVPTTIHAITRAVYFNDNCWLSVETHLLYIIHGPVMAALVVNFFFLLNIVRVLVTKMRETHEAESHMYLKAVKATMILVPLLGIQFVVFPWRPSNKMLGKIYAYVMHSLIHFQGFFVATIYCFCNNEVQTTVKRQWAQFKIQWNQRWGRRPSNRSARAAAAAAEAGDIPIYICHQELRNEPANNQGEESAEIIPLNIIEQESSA
Put shortly: (§1)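 Concentration-response curves were fitted to a 3-parameter logistic model to estimate EC50 and Emax. Cells had been exposed to ligand for 60 min with LiCl, and lysate IP1 determined by HTRF, with normalization to 100 μM ATP.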

In experiment [2] the target is T2, hCTR N286A (Homo sapiens, UniProt P30988, N286A).
T2 construct: c-Myc (N); expressed in transfected cells
T2 sequence (P30988 25-474 N286A): T1 sequence (P30988 25-474 D373A) with N262A, A349D
The procedure, abridged: as §1

The target in experiment [3] is T3, hCTR P360A (Homo sapiens, UniProt P30988, P360A).
T3 construct: expressed in transfected cells
T3 sequence (P30988 25-474 P360A): T1 sequence (P30988 25-474 D373A) with P336A, A349D
Put shortly: as §1

The target in experiment [4] is T4, hCTR T280A (Homo sapiens, UniProt P30988, T280A).
T4 construct: expressed in transfected cells
T4 sequence (P30988 25-474 T280A): T1 sequence (P30988 25-474 D373A) with T256A, A349D
Put shortly: as §1

In experiment [5] the target is T5, hCTR W361A (Homo sapiens, UniProt P30988, W361A).
T5 construct: expressed in transfected cells
T5 sequence (P30988 25-474 W361A): T1 sequence (P30988 25-474 D373A) with W337A, A349D
The procedure, abridged: as §1

Setting [6] is: IP1, CV1-FlpIn cells, 60 min, LiCl.

The source of these data is paper PMC5908784, “Extracellular loops 2 and 3 of the calcitonin receptor selectively modify agonist binding and efficacy” (Biochemical Pharmacology, 2018).

Substitutions are numbered along the chain they refer to. Where a SMILES comes first, the peptide text is derived from it. Bridges are numbered along the chain shown (N, C = ends).

The term Emax denotes the size of the effect at its maximum, as opposed to the concentration needed. As to `CC(C)C[C@H](NC(=O)[C@H](CCCCN)NC(=O)CNC(=O)[C@H](CC(C)C)NC(=O)[C@@H](NC(=O)[C@@H]1CSSC[C@H](N)C(=O)N[C@@H](CO)C(=O)N[C@@H](CC(N)=O)C(=O)N[C@@H](CC(C)C)C(=O)N[C@@H](CO)C(=O)N[C@@H]([C@@H](C)O)C(=O)N1)C(C)C)C(=O)N[C@@H](CO)C(=O)N[C@@H](CCC(N)=O)C(=O)N[C@@H](CCC(=O)O)C(=O)N[C@@H](CC(C)C)C(=O)N[C@@H](Cc1c[nH]cn1)C(=O)N[C@@H](CCCCN)C(=O)N[C@@H](CC(C)C)C(=O)N[C@@H](CCC(N)=O)C(=O)N[C@H](C(=O)N[C@@H](Cc1ccc(O)cc1)C(=O)N1CCC[C@H]1C(=O)N[C@@H](CCCNC(=N)N)C(=O)N[C@H](C(=O)N[C@@H](CC(N)=O)C(=O)N[C@H](C(=O)NCC(=O)N[C@@H](CO)C(=O)NCC(=O)N[C@H](C(=O)N1CCC[C@H]1C(N)=O)[C@@H](C)O)[C@@H](C)O)[C@@H](C)O)[C@@H](C)O` [sCT], the Emax in experiment [1] was 78 ± 6%; in experiment [2] it was 59 ± 5%; in experiment [3], 144 ± 5%; in experiment [4], 119 ± 5%; in experiment [5], 108 ± 6%.
What is called EC50 is the concentration giving half of the maximal effect. On to `CSCC[C@H](NC(=O)CNC(=O)[C@H](CO)NC(=O)[C@H](Cc1ccccc1)NC(=O)[C@H](CCCNC(=N)N)NC(=O)[C@H](Cc1c[nH]cn1)NC(=O)[C@H](Cc1ccccc1)NC(=O)[C@H](CC(N)=O)NC(=O)[C@H](CC(N)=O)NC(=O)[C@H](CC(C)C)NC(=O)[C@H](CC(N)=O)NC(=O)[C@H](CCCNC(=N)N)NC(=O)[C@H](Cc1c[nH]c2ccccc12)NC(=O)[C@H](Cc1ccc(O)cc1)NC(=O)[C@H](C)NC(=O)[C@H](CO)NC(=O)[C@H](CC(C)C)NC(=O)[C@@H](NC(=O)[C@@H]1CSSC[C@H](N)C(=O)N[C@@H](CO)C(=O)N[C@@H](CC(N)=O)C(=O)N[C@@H](CC(C)C)C(=O)N[C@@H](CO)C(=O)N[C@@H]([C@@H](C)O)C(=O)N1)C(C)C)C(=O)NCC(=O)N[C@@H](Cc1ccccc1)C(=O)NCC(=O)N1CCC[C@H]1C(=O)N[C@@H](CCC(=O)O)C(=O)N[C@H](C(=O)N1CCC[C@H]1C(N)=O)[C@@H](C)O` [pCT] (H-CSNLSTCVLSAYWRNLNNFHRFSGMGFGPETP-NH2; disulfide 1-7), for which the EC50 in experiment [1] (setting [6]) was 14.8 nM; in experiment [2] (setting [6]), 0.562 nM; in experiment [3] (setting [6]), 85.1 nM; in experiment [4] (setting [6]), 2.45 nM; in experiment [5] (setting [6]), 8.32 nM. The Emax in experiment [1] came to 46 ± 3%; in experiment [2], 76 ± 6%; in experiment [3], 107 ± 12%; in experiment [4] it was 100 ± 6%; in experiment [5], 80 ± 6%.
Regarding `CC[C@H](C)[C@H](NC(=O)[C@H](C)NC(=O)[C@@H](NC(=O)[C@H](CCC(N)=O)NC(=O)[C@@H]1CCCN1C(=O)[C@H](Cc1ccccc1)NC(=O)[C@@H](NC(=O)[C@H](Cc1c[nH]cn1)NC(=O)[C@H](Cc1ccccc1)NC(=O)[C@H](CCCCN)NC(=O)[C@H](CC(N)=O)NC(=O)[C@H](Cc1ccccc1)NC(=O)[C@H](CC(=O)O)NC(=O)[C@H](CCC(N)=O)NC(=O)[C@@H](NC(=O)[C@H](Cc1ccc(O)cc1)NC(=O)[C@@H](NC(=O)CNC(=O)[C@H](CC(C)C)NC(=O)[C@H](CCSC)NC(=O)[C@@H]1CSSC[C@H](N)C(=O)NCC(=O)N[C@@H](CC(N)=O)C(=O)N[C@@H](CC(C)C)C(=O)N[C@@H](CO)C(=O)N[C@@H]([C@@H](C)O)C(=O)N1)[C@@H](C)O)[C@@H](C)O)[C@@H](C)O)[C@@H](C)O)C(=O)NCC(=O)N[C@H](C(=O)NCC(=O)N[C@@H](C)C(=O)N1CCC[C@H]1C(N)=O)C(C)C` [hCT], the maximal effect (Emax) in experiment [1] came to 102 ± 10%; in experiment [2], 40 ± 3%; in experiment [3], 95 ± 8%; in experiment [4], 79 ± 6%; in experiment [5] it was 89 ± 9%.
